Laboratory results as given in PubChem BioAssay (NCI).
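Five concentrations, 48 hours, 96-well plates. TGI marks complete inhibition of growth.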

Columns and labels:
Experiment in all cases: DTP human tumour cell line panel, 48 h
[1] = tested on: 786-0 renal
[2] = tested on: A498 renal
[3] = tested on: A549 NSCLC
[4] = tested on: ACHN renal
[5] = tested on: BT-549 breast
[6] = tested on: CAKI-1 renal
[7] = tested on: COLO 205 colon
[8] = tested on: DU-145 prostate
[9] = tested on: EKVX NSCLC
[10] = tested on: HCC-2998 colon
[11] = tested on: HCT-116 colon
[12] = tested on: HCT-15 colon
[13] = tested on: HOP-62 NSCLC
[14] = tested on: HOP-92 NSCLC
[15] = tested on: HS 578T breast
[16] = tested on: HT29 colon
[17] = tested on: IGROV1 ovarian
[18] = tested on: K-562 leukemia
[19] = tested on: KM12 colon
[20] = tested on: LOX IMVI melanoma
[21] = tested on: M14 melanoma
[22] = tested on: MALME-3M melanoma
[23] = tested on: MCF7 breast
[24] = tested on: MDA-MB-231 breast
[25] = tested on: MDA-MB-435
[26] = tested on: MDA-N
[27] = tested on: NCI-H226 lung
[28] = tested on: NCI-H23 lung
[29] = tested on: NCI-H460 lung
[30] = tested on: NCI-H522 lung
[31] = tested on: NCI/ADR-RES ovarian
[32] = tested on: OVCAR-3 ovarian
[33] = tested on: OVCAR-4 ovarian
[34] = tested on: OVCAR-5 ovarian
[35] = tested on: OVCAR-8 ovarian
[36] = tested on: PC-3 prostate
[37] = tested on: RPMI-8226 leukemia
[38] = tested on: RXF 393 renal
[39] = tested on: SF-268 CNS
[40] = tested on: SF-295 CNS
[41] = tested on: SF-539 CNS
[42] = tested on: SK-MEL-2 melanoma
[43] = tested on: SK-MEL-28 melanoma
[44] = tested on: SK-MEL-5 melanoma
[45] = tested on: SK-OV-3 ovarian
[46] = tested on: SN12C renal
[47] = tested on: SNB-19 CNS
[48] = tested on: SNB-75 CNS
[49] = tested on: SR leukemia
[50] = tested on: SW-620 colon
[51] = tested on: T-47D breast
[52] = tested on: TK-10 renal
[53] = tested on: U251 CNS
[54] = tested on: UACC-257 melanoma
[55] = tested on: UACC-62 melanoma
[56] = tested on: UO-31 renal
[57] = tested on: CCRF-CEM leukemia
[58] = tested on: HL-60(TB) leukemia
[59] = tested on: MOLT-4 leukemia

Structure (SMILES): O=C(O)CC12CC3CC(CC(O)(C3)C1)C2
- TGI [1]: > 100 µM
- TGI [2]: > 100 µM
- TGI [3]: > 100 µM
- TGI [4]: > 100 µM
- TGI [5]: > 100 µM
- TGI [6]: > 100 µM
- TGI [7]: > 100 µM
- TGI [8]: > 100 µM
- TGI [9]: > 100 µM
- TGI [10]: > 100 µM
- TGI [11]: > 100 µM
- TGI [12]: > 100 µM
- TGI [13]: > 100 µM
- TGI [14]: > 100 µM
- TGI [15]: 59.9 µM
- TGI [16]: > 100 µM
- TGI [17]: > 100 µM
- TGI [18]: > 100 µM
- TGI [19]: > 100 µM
- TGI [20]: > 100 µM
- TGI [21]: > 100 µM
- TGI [22]: 77.1 µM
- TGI [23]: > 100 µM
- TGI [24]: > 100 µM
- TGI [25]: > 100 µM
- TGI [26]: > 100 µM
- TGI [27]: > 100 µM
- TGI [28]: > 100 µM
- TGI [29]: > 100 µM
- TGI [30]: 59.4 µM
- TGI [31]: > 100 µM
- TGI [32]: > 100 µM
- TGI [33]: > 100 µM
- TGI [34]: > 100 µM
- TGI [35]: > 100 µM
- TGI [36]: > 100 µM
- TGI [37]: > 100 µM
- TGI [38]: > 100 µM
- TGI [39]: 82.7 µM
- TGI [40]: > 100 µM
- TGI [41]: > 100 µM
- TGI [42]: > 100 µM
- TGI [43]: > 100 µM
- TGI [44]: > 100 µM
- TGI [45]: > 100 µM
- TGI [46]: > 100 µM
- TGI [47]: > 100 µM
- TGI [48]: > 100 µM
- TGI [49]: > 100 µM
- TGI [50]: > 100 µM
- TGI [51]: > 100 µM
- TGI [52]: > 100 µM
- TGI [53]: > 100 µM
- TGI [54]: > 100 µM
- TGI [55]: > 100 µM
- TGI [56]: > 100 µM

Structure (SMILES): COc1ccc(OC)c(Cc2cnc3nc(N)nc(N)c3c2C)c1
- TGI [1]: 30.2 µM
- TGI [3]: 36.9 µM
- TGI [4]: 20.1 µM
- TGI [5]: 43.8 µM
- TGI [6]: > 81.9 µM
- TGI [57]: 29.4 µM
- TGI [7]: > 52.6 µM
- TGI [8]: > 59.8 µM
- TGI [9]: > 83.3 µM
- TGI [10]: 16.4 µM
- TGI [11]: 30.4 µM
- TGI [12]: 11.4 µM
- TGI [58]: 18.7 µM
- TGI [13]: 17.3 µM
- TGI [14]: 39.6 µM
- TGI [15]: 49.7 µM
- TGI [16]: 20 µM
- TGI [17]: 2.61 µM
- TGI [18]: 14.9 µM
- TGI [19]: 20.7 µM
- TGI [20]: 25.6 µM
- TGI [21]: > 41.9 µM
- TGI [22]: 13.7 µM
- TGI [23]: 28.6 µM
- TGI [24]: 33.8 µM
- TGI [25]: > 49 µM
- TGI [26]: > 57.7 µM
- TGI [59]: 23.5 µM
- TGI [27]: 33.3 µM
- TGI [28]: > 50.1 µM
- TGI [29]: 12.2 µM
- TGI [30]: 21.8 µM
- TGI [31]: > 100 µM
- TGI [32]: 10.9 µM
- TGI [33]: 28.8 µM
- TGI [34]: 48.1 µM
- TGI [35]: 27.8 µM
- TGI [36]: 27.7 µM
- TGI [37]: 15.8 µM
- TGI [38]: 21.9 µM
- TGI [39]: > 71.2 µM
- TGI [40]: 41.9 µM
- TGI [41]: 20.3 µM
- TGI [42]: 27.9 µM
- TGI [43]: > 51 µM
- TGI [44]: 93.8 µM
- TGI [45]: 27.2 µM
- TGI [46]: 33.6 µM
- TGI [47]: 55.4 µM
- TGI [48]: 21.3 µM
- TGI [49]: 21.7 µM
- TGI [50]: > 45.1 µM
- TGI [51]: 47.2 µM
- TGI [52]: > 84.7 µM
- TGI [53]: > 44.1 µM
- TGI [54]: 47.4 µM
- TGI [55]: > 71.2 µM
- TGI [56]: 27.7 µM

Structure (SMILES): C/C(N)=N/OCc1nc(C)no1
- TGI [1]: > 100 µM
- TGI [3]: > 100 µM
- TGI [4]: > 100 µM
- TGI [5]: > 100 µM
- TGI [6]: > 100 µM
- TGI [57]: > 100 µM
- TGI [7]: > 100 µM
- TGI [8]: > 100 µM
- TGI [9]: > 100 µM
- TGI [10]: > 100 µM
- TGI [11]: > 100 µM
- TGI [12]: > 100 µM
- TGI [58]: > 100 µM
- TGI [13]: > 100 µM
- TGI [15]: > 100 µM
- TGI [16]: > 100 µM
- TGI [18]: > 100 µM
- TGI [19]: > 100 µM
- TGI [21]: > 100 µM
- TGI [23]: > 100 µM
- TGI [24]: > 100 µM
- TGI [25]: > 100 µM
- TGI [26]: > 100 µM
- TGI [59]: > 100 µM
- TGI [28]: > 100 µM
- TGI [29]: > 100 µM
- TGI [30]: > 100 µM
- TGI [31]: > 100 µM
- TGI [32]: > 100 µM
- TGI [33]: > 100 µM
- TGI [35]: > 100 µM
- TGI [36]: > 100 µM
- TGI [37]: > 100 µM
- TGI [38]: > 100 µM
- TGI [39]: > 100 µM
- TGI [40]: > 100 µM
- TGI [41]: > 100 µM
- TGI [43]: > 100 µM
- TGI [44]: > 100 µM
- TGI [45]: > 100 µM
- TGI [46]: > 100 µM
- TGI [47]: > 100 µM
- TGI [48]: > 100 µM
- TGI [49]: > 100 µM
- TGI [50]: > 100 µM
- TGI [51]: > 100 µM
- TGI [52]: > 100 µM
- TGI [53]: > 100 µM
- TGI [54]: > 100 µM
- TGI [55]: > 100 µM
- TGI [56]: > 100 µM
